The structures appear in SMILES notation.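 Briefly, cells in 96-well plates were exposed to five compound concentrations for 48 h, and endpoints were estimated by linear interpolation. At the GI50, growth is halved. TGI: total growth inhibition.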

This is an account of results in PubChem BioAssay (NCI).

For this assay, the system named is MDA-MB-468 breast. In words: NCI anticancer screen, dose series, 48 h.

Turning to `CN(C)c1ccc(N)cc1`, the GI50 was 2.81 µM and the TGI is 8.7 µM.

Turning to `NC(=S)N/N=C/c1ccc(OC(=O)COc2ccc(Cl)cc2)cn1`, the GI50 was 2.54 µM and the TGI was 9.59 µM.

As for `O=C(c1cccc(O)c1O)c1cn(Cc2ccc(F)cc2)c2cccc(O)c12`, the GI50 is 5.46 µM and the TGI turned out to be 21.7 µM.

In the case of `Nc1ncc(-c2cnn(CCO)c2)c2scc(-c3ccc(NC(=O)Nc4cccc(F)c4)cc3)c12`, the GI50 is 0.443 µM and the TGI was 5.66 µM.

Consider `CCC#CC[C@H]1C/C=C2/C(=O)C=C[C@@H]2C/C=C\CCCC(=O)O1`, for which the GI50 was 0.928 µM and the TGI was found to be 5.47 µM.

For `COc1cc[nH]c1/C=C1\C(=O)Nc2ccccc21`, the GI50 was 1.11 µM and the TGI is > 25 µM.

Take `O=C(Nc1ccc(Cl)cc1)c1cc(-c2ccc(F)cc2)c2sc(=O)[nH]c2n1`: the GI50 was 0.687 µM and the TGI stood at 4.97 µM.

Take `COc1ccc(OC)c(/C=C/C(=O)N/N=C/c2ccc(Cl)cc2)c1`: the GI50 was 0.0768 µM and the TGI is 0.363 µM.

For the molecule `CCS(=O)(=O)c1ccc(OC)c(Nc2ncc(-c3cccc(C(C)=O)c3)o2)c1`, the GI50 was 3.46 µM and the TGI is > 25 µM.

Take `Cc1ccc(C(=NN=C(N)N)c2ccc(C)cc2)cc1`: the GI50 was 0.232 µM and the TGI amounted to 0.75 µM.

In the case of `CCCCN=C(N)c1ccc(OCCSCCOc2ccc(C(N)=NCCCC)cc2)cc1`, the GI50 was 0.36 µM and the TGI is 3.87 µM.

`O=C(N/N=C/c1cccc(O)c1O)c1ccccc1`: the GI50 was 1.29 µM and the TGI worked out at 11.1 µM.

In the case of `Cc1cc(C)c(C(=O)CC(=O)c2cccnc2)c(C)c1`, the GI50 is 8.68 µM and the TGI was 49.8 µM.

As for `COc1cc(NC(=O)c2cc(O)c(CC=C(C)C)c(O)c2)cc2c1O[C@]1(C)CC[C@@H](O)C(C)(C)[C@H]1C2`, the GI50 is 3.42 µM and the TGI came to 19.8 µM.

As to `COc1cc(C2=NN(C(C)=O)C(c3ccc(OC(C)=O)cc3OC(C)=O)O2)c(OC(C)=O)c2ccccc12` (stereo unspecified), the GI50 was 1.06 µM and the TGI turned out to be 6.58 µM.

Turning to `CCN(CC)c1ccc(C(=N)c2ccc(N(CC)CC)cc2)cc1`, the GI50 was 0.312 µM and the TGI was determined as 1.43 µM.

Turning to `CC/C=C\C[C@@H]1C/C=C2/C(=O)C=C[C@H]2C/C=C\CCCC(=O)O1`, the GI50 was 0.976 µM and the TGI turned out to be 2.58 µM.

Regarding `O=C(CCl)Nc1ccc(Cl)cc1`, the GI50 is 2.34 µM and the TGI stood at 6.28 µM.

As for `CCOC(=O)Sc1ncnc2nc[nH]c12`, the GI50 is 0.35 µM and the TGI was > 100 µM.

With `COc1ccc(C(=O)COc2cccc(/C=C3\COc4ccc5ccccc5c4C3=O)c2)cc1`, the GI50 is 2.36 µM and the TGI was determined as 12.3 µM.

Consider `COC(=O)Nc1nc2ccc(Oc3ccc(NC(=O)Nc4ccccc4)cc3)cc2[nH]1`, for which the GI50 is 0.0561 µM and the TGI amounted to 0.489 µM.

Turning to `CCOC(=O)c1cc(/C(=N\O)c2cc(OC)c(OC)c(OC)c2)n2cc(C)cc(C)c12`, the GI50 was 1.46 µM and the TGI turned out to be 4.79 µM.

`CC(C)c1ccc(C(=O)Nc2sc3c(c2C(N)=O)CCC(=O)C3)cc1`: the GI50 is 0.453 µM and the TGI worked out at 1.81 µM.

As to `CCS(=O)(=O)c1ccc(OC)c(Nc2ncc(-c3cccc(OC)c3)o2)c1`, the GI50 was 10.5 µM and the TGI was > 25 µM.

Consider `COc1cc(OC)c(/C=C/C(=O)c2c(OC)cccc2OC)c(OC)c1`, for which the GI50 was 0.394 µM and the TGI is 3.16 µM.

With `COc1ccc(C(=O)c2cc(C)c(OC)c(C)c2)c(OC)c1N(C(=O)C(Cl)Cl)C(=O)C(Cl)Cl`, the GI50 was 0.0259 µM and the TGI worked out at 0.0926 µM.

As to `CCN1C(=O)CNc2ncc(-c3ccc(-c4ncn[nH]4)nc3C)nc21`, the GI50 is 0.196 µM and the TGI is 1.17 µM.

Take `CC1CN1CC(O)C(O)CN1CC1C` (stereo unspecified): the GI50 is 0.278 µM and the TGI turned out to be 1.68 µM.
